Laboratory results taken from patent US10888575B2, “Combination comprising zidovudine and a carbapenem” (HELPERBY THERAPEUTICS LIMITED, priority 2016, dated 2021).
Like-named read-outs stand apart in the source and are kept apart here.

Columns and labels:
Assay type in all cases: cell-based
[1] = tested on: log phase NDM-1 Klebsiella pneumoniae subsp. pneumoniae (BAA2472); assay: chequerboard method, zidovudine and meropenem; parameters: scale not given here
Procedure: The chequerboard method used in Example 1 followed the protocols detailed in Antimicrob Chemo (2013) 68, 374-384.
Log phase growth of NDM-1 Klebsiella pneumoniae subsp. pneumoniae was carried out as described in the art. Zidovudine and meropenem were obtained from commercially available sources. The effects of the combination of the present invention were examined by calculating the fractional inhibitory concentration index (FICI) of each combination, as follows:
(MIC of drug A, tested in combination)/(MIC of drug A, tested alone)+(MIC of drug B, tested in combination)/(MIC of drug B, tested alone).
The interaction of the combination was defined as showing synergy if the FICI was ≤0.5, no interaction if the FICI was >0.5 but <4.0 and antagonism if the FICI was >4.0.

[2] = tested on: log phase NDM-1 Escherichia coli (BAA2469); assay: time-kill, zidovudine and meropenem; conditions: 24 hours
Procedure: (§1) As described hereinabove, time-kill methods are another accepted test for ascertaining the presence or absence of synergy, and involve comparing the dynamic effect of a drug combination with each drug alone when assessing the effect on bacterial log or stationary-growth over time.
(§2) • 1. Bacterial strain used: BAA2471 or BAA2469 strain of Escherichia coli • 2. Growth of bacteria: Log phase growth of BAA2471 or BAA2469 was carried out according to known methods in the art, e.g. SOP R-005-00 Log Phase Growth of Bacteria. • 3. Compound preparation: zidovudine and mereopenem were both obtained from commercial sources (e.g. Sigma-Aldrich). • 4. The overnight culture was diluted with nutrient broth (Oxoid) to 10^7 CFU/ml and 280 μl and 290 μl of the culture was added to each combination well and drug respectively, to make the final concentration of 300 μl. • 5. Incubation of the compounds with the bacterial suspension was carried out for 24 hours. At 0, 2, 4, 7 and 24 hours, CFU counts were performed to measure the kill effects of the drug combination. Results and Discussion

[3] = tested on: log phase NDM-1 Escherichia coli (BAA2471); assay: time-kill, zidovudine and meropenem; conditions: 24 hours
Procedure: as §1, §2

[4] = tested on: log phase NDM-1 Klebsiella pneumoniae (BAA2470); assay: chequerboard method, zidovudine, meropenem and colistimethate sodium; parameters: chequerboard reading: scale not given here
Procedure: The chequerboard method used in Example 1 was followed, according to the protocols detailed in Antimicrob Chemo (2013) 68, 374-384. The bacterial strain of NDM-1 Klebsiella pneumoniae was BAA2470. Log phase growth of BAA2470 was carried out as described in the art. Zidovudine, meropenem and colistimethate sodium were obtained from commercially available sources. The effects of the triple combination of the present invention were examined by calculating the MIC for each drug alone and in combination.

[5] = tested on: log phase NDM-1 K. pneumoniae subsp. pneumoniae (BAA2470); assay: time-kill, zidovudine, meropenem and CMS
Procedure: as §2, with “BAA2470” for “BAA2471 or BAA2469”, “K. pneumoniae subsp. pneumoniae” for “Escherichia coli”, “zidovudine, mereopenem” for “zidovudine”, “colistimethate sodium” for “mereopenem”, “were” for “were both”, “combination.” for “combination. Results and Discussion”

[6] = zidovudine added at 0.25 μg/ml to the meropenem and CMS combination

Cc1cn([C@H]2C[C@H](N=[N+]=[N-])[C@@H](CO)O2)c(=O)[nH]c1=O [zidovudine, 1-[(2R,4S, 5S)-4-Azido-5-(hydroxymethyl)oxolan-2-yl]-5-methylpyrimidine-2,4-dione]
chequerboard reading ([1]; zidovudine 0.5, meropenem 0): 0.16 | chequerboard reading ([1]; zidovudine 1, meropenem 0): 0.22 | chequerboard reading ([1]; zidovudine 2, meropenem 0): 0.10 | chequerboard reading ([1]; zidovudine 4, meropenem 0): 0.23 | chequerboard reading ([1]; zidovudine 8, meropenem 0): 0.23 | chequerboard reading ([1]; zidovudine 16, meropenem 0): 0.04 | chequerboard reading ([1]; zidovudine 32, meropenem 0): 0.26 | time-kill effect ([2]; zidovudine alone 16 mg/L): little or no effect | time-kill effect ([3]; zidovudine alone 32 mg/L): little or no effect | chequerboard reading ([4]; meropenem 0, CMS 0, zidovudine 0.25 μg/ml): 0.31 | chequerboard reading ([4]; meropenem 0, CMS 0, zidovudine 0.50 μg/ml): 0.17 | chequerboard reading ([4]; meropenem 0, CMS 0, zidovudine 1 μg/ml): 0.11 | chequerboard reading ([4]; meropenem 0, CMS 0, zidovudine 2 μg/ml): 0.08 | kill of the bacterium ([5]; zidovudine alone 16 μg/ml, at 2 hours, then growth occurred): one

colistimethate sodium
chequerboard reading ([4]; meropenem 0, CMS 0.031, zidovudine 0 μg/ml): 0.66 | chequerboard reading ([4]; meropenem 0, CMS 0.063, zidovudine 0 μg/ml): 0.61 | chequerboard reading ([4]; meropenem 0, CMS 0.125, zidovudine 0 μg/ml): 0.58 | chequerboard reading ([4]; meropenem 0, CMS 0.25, zidovudine 0 μg/ml): 0.50 | chequerboard reading ([4]; meropenem 0, CMS 0.5, zidovudine 0 μg/ml): 0.51 | chequerboard reading ([4]; meropenem 0, CMS 1, zidovudine 0 μg/ml): 0.47 | chequerboard reading ([4]; meropenem 0, CMS 2, zidovudine 0 μg/ml): 0.46 | chequerboard reading ([4]; meropenem 0, CMS 4, zidovudine 0 μg/ml): 0.42 | chequerboard reading ([4]; meropenem 0, CMS 8, zidovudine 0 μg/ml): 0.42 | chequerboard reading ([4]; meropenem 0, CMS 16, zidovudine 0 μg/ml): 0.23 | chequerboard reading ([4]; meropenem 0, CMS 32, zidovudine 0 μg/ml): 0.05 | MIC ([4]; without zidovudine): 32 µg/mL | MIC [4, 6]: 8 µg/mL | MIC ([4]; zidovudine added at 0.5 μg/ml to the meropenem and CMS combination): 0.5 µg/mL | MIC ([4]; zidovudine added at 1 μg/ml to the meropenem and CMS combination): 0.25 µg/mL | time-kill effect ([5]; CMS alone 4 ug/ml): no effect

C[C@@H](O)[C@H]1C(=O)N2C(C(=O)O)=C(S[C@@H]3CN[C@H](C(=O)N(C)C)C3)[C@H](C)[C@H]12 [meropenem]
chequerboard reading ([1]; zidovudine 0, meropenem 0.25): 0.40 | chequerboard reading ([1]; zidovudine 0, meropenem 0.5): 0.41 | chequerboard reading ([1]; zidovudine 0, meropenem 1): 0.45 | chequerboard reading ([1]; zidovudine 0, meropenem 2): 0.35 | chequerboard reading ([1]; zidovudine 0, meropenem 4): 0.34 | chequerboard reading ([1]; zidovudine 0, meropenem 8): 0.44 | chequerboard reading ([1]; zidovudine 0, meropenem 16): 0.44 | chequerboard reading ([1]; zidovudine 0, meropenem 32): 0.25 | chequerboard reading ([1]; zidovudine 0, meropenem 64): 0.21 | chequerboard reading ([1]; zidovudine 0, meropenem 128): 0.20 | chequerboard reading ([1]; zidovudine 0, meropenem 256): 0.05 | time-kill effect ([2]; meropenem alone 8 mg/L): little or no effect | time-kill effect ([3]; meropenem alone 256 mg/L): little or no effect | MIC ([4]; Klebsiella pneumoniae, BAA2470): 256 µg/mL | MIC ([4]; Klebsiella pneumoniae, BAA2470, zidovudine added at 0.5 μg/ml to the meropenem and CMS combination, read-out: MIC): 64 µg/mL | MIC ([4]; Klebsiella pneumoniae, BAA2470, zidovudine added at 1 μg/ml to the meropenem and CMS combination, read-out: MIC): 16 µg/mL | chequerboard reading ([4]; meropenem 8, CMS 0, zidovudine 0 μg/ml): 0.69 | chequerboard reading ([4]; meropenem 16, CMS 0, zidovudine 0 μg/ml): 0.70 | chequerboard reading ([4]; meropenem 32, CMS 0, zidovudine 0 μg/ml): 0.63 | chequerboard reading ([4]; meropenem 64, CMS 0, zidovudine 0 μg/ml): 0.55 | chequerboard reading ([4]; meropenem 128, CMS 0, zidovudine 0 μg/ml): 0.36 | chequerboard reading ([4]; meropenem 256, CMS 0, zidovudine 0 μg/ml): 0.05 | chequerboard reading ([4]; meropenem 512, CMS 0, zidovudine 0 μg/ml): 0.05 | MIC [4, 6]: remained the same | kill of the bacterium ([5]; meropenem alone 64 μg/ml, at 4 hours, followed by a regrowth): about 3 logs
